Marks after values point to notes of the source that are not given here. Non-standard residues stand in square brackets, D forms with d. No end group written: not given here. *: point of attachment. Boc = CC(C)(C)OC(=O)*; OtBu = CC(C)(C)O*; tBu = CC(C)(C)*
What was measured:
Assay type in all cases: biochemical
[1] = system: peptide-forming enzyme from Empedobacter brevis strain FERM BP-8113; assay: Substrate specificity of enzyme (peptide production from carboxy and amine components); set-up: key to Formed peptide (mM): +: those peptides for which production was confirmed but which were unable to be quantified due to the absence of a standard; a trace amount
[2] = system: enzyme derived from Sphingobacterium sp. strain FERM BP-8124; assay: Substrate specificity of enzyme derived from Sphingobacterium sp.; set-up: key to Produced peptide (mM): +: those peptides for which production was confirmed but which were unable to be quantified due to the absence of a standard; a trace amount; conditions: carboxy component 100 mM, 0.33 units enzyme, pH 9.0, 25° C., 1.5 hours
[3] = system: peptide-forming enzyme from Empedobacter brevis strain FERM BP-8113; assay: Substrate specificity of enzyme (peptide production from carboxy and amine components); set-up: key to Formed peptide (mM): +: those peptides for which production was confirmed but which were unable to be quantified due to the absence of a standard; a trace amount; conditions: pH 9.0, 25° C.; for L-Ala-L-Gln formed: carboxy component 100 mM, 200 mM L-glutamine, 2 hours; for Formed peptide / Formed peptide (mM): L-amino acid methyl ester hydrochloride 100 mM, 3 hours
Source text: Ester specificity was examined in the case of using L-amino acid ester for the carboxy component. […] HCl represents hydrochloride in Table 4.
Peptide production was examined in the case of using L-alanine methyl ester for the carboxy component and using various L-amino acids for the amine component.
Peptide production was examined in the case of using various types of L-amino acid methyl esters for the carboxy component and using L-glutamine for the amine component. […] Furthermore, Tween-80 was added to the reaction system to a final concentration of 0.1% in the case of using L-Trp-OMe and L-Tyr-OMe.

[4] = amino acid methyl ester hydrochloride 100 mM, methylamine 150 mM, pH 9.0, 25° C., 3 hours
[5] = Table 15-4, amine component 150 mM
[6] = β-amino acid ester or β-amino acid, carboxy component 100 mM, amine component 150 mM, pH 9.0, 25° C., 3 hours
[7] = L or D amino acid methyl ester hydrochloride 100 mM, L or D amino acid 150 mM, pH 9.0, 25° C., 3 hours
[8] = Table 15-1, amine component 150 mM
[9] = carboxy component 100 mM, peptide amine component 150 mM, pH 9.0, 25° C., 3 hours
[10] = oligopeptide production, amine component 150 mM
[11] = Table 15-3, amine component 150 mM
[12] = oligopeptide production, amount of enzyme 1.0 unit, pH 9.0, 25° C., 3 hours
[13] = carboxy component 100 mM, amine component 150 mM, 0.1 unit enzyme, 25° C., reaction time 3 hr
[14] = carboxy component 100 mM, amine component 150 mM, 0.1 unit enzyme, 25° C., reaction time 2 hr
[15] = carboxy component 40 mM, amine component 40 mM, 0.1 unit enzyme, 25° C., reaction time 3 hr
[16] = L-alanine methyl ester hydrochloride 100 mM, L-amino acid amide hydrochloride 150 mM, pH 9.0, 25° C., 3 hours

CNC(=O)CN [Gly-methylamine]
Formed peptide [1, 4]: 1.1 mM
Produced peptide [2, 5]: 1.0 mM

CNC(=O)C(C)N [L-Ala-methylamine]
Formed peptide [1, 4]: 0.3 mM
Produced peptide [2, 5]: 0.6 mM

CCOC(=O)[C@H](C)N.Cl [L-Alanine ethyl ester•HCl]
L-Ala-L-Gln formed [3]: 91.5 mM

CC(C)OC(=O)[C@H](C)N.Cl [L-Alanine isopropyl ester•HCl]
L-Ala-L-Gln formed [3]: 78.9 mM

COC(=O)[C@H](C)N.Cl [L-Alanine methyl ester•HCl, L-alanine methyl ester hydrochloride]
L-Ala-L-Gln formed [3]: 84.3 mM

C[C@H](N)C(=O)OC(C)(C)C.Cl [L-Alanine-t-butyl ester•HCl]
L-Ala-L-Gln formed [3]: 7.5 mM

CNC(=O)[C@@H](N)[C@@H](C)O [L-Thr-methylamine]
Formed peptide [1, 4]: 0.2 mM
Produced peptide [2, 5]: 0.3 mM

Ala-β-Ala
Formed peptide [1, 6]: 7.7 mM

Ala-β-Phe
Formed peptide [1, 6]: 1.4 mM

D-Ala-D-Gln
Formed peptide (mM) [1, 7]: tr

D-Ala-D-Ser
Formed peptide [1, 7]: 0.2 mM
Produced peptide [2, 8]: 5.5 mM

D-Ala-L-Gln
Formed peptide [1, 7]: 69.3 mM

D-Ala-L-Ser
Formed peptide [1, 7]: 20.3 mM
Produced peptide [2, 8]: 24.1 mM

D-Met-D-Ser
Formed peptide [1, 7]: 2.7 mM

D-Met-L-Ser
Formed peptide [1, 7]: 5.1 mM

D-Ser-D-Ser
Formed peptide [1, 7]: 2.5 mM

D-Ser-L-Ser
Formed peptide [1, 7]: 3.3 mM

D-Thr-D-Ser
Formed peptide [1, 7]: 1.1 mM

D-Thr-L-Ser
Formed peptide [1, 7]: 1.0 mM

D-Val-D-Ser
Formed peptide [1, 7]: 0.5 mM

D-Val-L-Ser
Formed peptide [1, 7]: 0.6 mM

Gly-Gly-L-Gln
Produced peptide [1, 9]: 7.2 mM

Gly-Gly-L-Tyr-L-Ala
Produced peptide [1, 9]: 44.2 mM

Gly-L-Ala-L-Tyr
Produced peptide [1, 9]: 1.7 mM
Produced peptide [2, 10]: 0.6 mM

Gly-L-Arg
Formed peptide ([3]; L-amino acid 150 mM): 25.5 mM
Produced peptide [2, 11]: 17.9 mM

Gly-L-CySH
Formed peptide ([3]; L-amino acid 150 mM): 45.6 mM

Gly-L-Gln
Formed peptide ([3]; 150 mM L-glutamine): 54.7 mM
Produced peptide ([2]; Table 15-2, L-Gln 150 mM): 61.1 mM

Gly-L-Lys
Formed peptide ([3]; L-amino acid 150 mM): 9.8 mM
Produced peptide [2, 11]: 48.2 mM

Gly-L-Ser
Formed peptide ([3]; L-amino acid 150 mM): 44.2 mM
Produced peptide [2, 11]: 53.8 mM

Gly-Phe-Met
Produced peptide [1, 12]: 13.3 mM

Gly-β-Ala
Formed peptide [1, 6]: 2.2 mM

Gly-β-Phe
Formed peptide [1, 6]: 0.4 mM

H-Aib-H-Gln-OH
Produced peptide [1, 13]: 18.8 mM

H-Aib-Phe-OH
Produced peptide [1, 13]: 17.2 mM

H-Ala-Asp(OtBu)-OH
Produced peptide [1, 14]: 62.6 mM

H-Ala-Cl—F-Phe-OH
Produced peptide [1, 15]: 20.8 mM

H-Ala-Lys(Boc)-OH
Produced peptide [1, 14]: 51.0 mM

H-Ala-Ser(tBu)-OH
Produced peptide [1, 14]: 48.8 mM

H-Ala-p-F-Phe-OH
Produced peptide ([1]; carboxy component 50 mM, amine component 50 mM, 0.1 unit enzyme, 25° C., reaction time 3 hr): 21.9 mM

H-Ala-p-NO2-Phe-OH
Produced peptide [1, 15]: 27.5 mM

H-Ala-t-Leu-OH
Produced peptide [1, 13]: 0.4 mM

H-Asp(OtBu)-Gln-OH
Produced peptide [1, 14]: 0.9 mM

H-p-NO2-Phe-H-Gln-OH
Produced peptide [1, 15]: 1.1 mM

H—N—Me-Ala-H-Gln-OH
Produced peptide [1, 13]: 0.5 mM

L-Ala-D-Gln
Formed peptide [1, 7]: 0.3 mM

L-Ala-D-Ser
Formed peptide [1, 7]: 5.4 mM
Produced peptide [2, 8]: 3.3 mM

L-Ala-Gly
Produced peptide [2, 8]: 11.1 mM

L-Ala-Gly-Gly
Produced peptide [1, 9]: 41.7 mM
Produced peptide [2, 10]: 33.7 mM

L-Ala-Gly-L-Ala
Produced peptide [1, 9]: 25.9 mM
Produced peptide [2, 10]: 35.1 mM

L-Ala-Gly-NH2
Formed peptide [1, 16]: 7.4 mM
Produced peptide [2, 5]: 15.1 mM

L-Ala-L-Ala
Produced peptide [1, 9]: 28.7 mM
Produced peptide [2, 8]: 13.1 mM
Produced peptide [2, 10]: 25.6 mM

L-Ala-L-Ala-L-Ala
Produced peptide [1, 9]: 57.5 mM
Produced peptide [2, 10]: 41.1 mM

L-Ala-L-Ala-L-Ala-L-Ala
Produced peptide [1, 9]: 44.5 mM
Produced peptide [2, 10]: 30.1 mM

L-Ala-L-Ala-L-Ala-L-Ala-L-Ala
Produced peptide [1, 9]: 34.8 mM
Produced peptide [2, 10]: 22.8 mM

L-Ala-L-Ala-L-Ala-L-Ala-L-Ala-L-Ala
Produced peptide (mM) ([1]; carboxy component 10 mM, amine component 15 mM, pH 9.0, 25° C., 3 hours): 1.4* mM

L-Ala-L-Ala-L-Gln
Produced peptide [1, 9]: 15.2 mM

L-Ala-L-Ala-NH2
Formed peptide [1, 16]: 8.3 mM
Produced peptide [2, 5]: 9.2 mM

L-Ala-L-Asn
Produced peptide [2, 8]: 52.3 mM

L-Ala-L-Asp
Produced peptide [2, 8]: 2.3 mM

L-Ala-L-CySH
Produced peptide (mM) [2, 8]: +

L-Ala-L-Glu
Produced peptide [2, 8]: 39.1 mM

L-Ala-L-His-L-Ala
Produced peptide [1, 9]: 55.9 mM
Produced peptide [2, 10]: 58.0 mM

L-Ala-L-Ile
Produced peptide [2, 8]: 24.7 mM

L-Ala-L-Leu-L-Ala
Produced peptide [1, 9]: 48.3 mM
Produced peptide [2, 10]: 40.7 mM

L-Ala-L-Lys
Produced peptide [2, 8]: 71.2 mM

L-Ala-L-Phe-Gly
Produced peptide [1, 9]: 43.7 mM
Produced peptide [2, 10]: 34.0 mM

L-Ala-L-Phe-L-Ala
Produced peptide [1, 9]: 49.7 mM
Produced peptide [2, 10]: 24.8 mM

L-Ala-L-Phe-NH2
Formed peptide [1, 16]: 12.2 mM
Produced peptide [2, 5]: 27.1 mM

L-Ala-L-Pro
Produced peptide [2, 8]: 1.5 mM

L-Ala-L-Thr
Produced peptide [2, 8]: 47.3 mM

L-Ala-L-Trp
Produced peptide [2, 8]: 46.0 mM

L-Ala-L-Tyr
Produced peptide [2, 8]: 11.1 mM

L-Ala-L-Val
Produced peptide [2, 8]: 10.9 mM

L-Arg-L-Gln
Formed peptide ([3]; 150 mM L-glutamine): 7.1 mM
Produced peptide ([2]; Table 15-2, L-Gln 150 mM): 17.2 mM

L-Arg-L-Met
Formed peptide ([3]; L-amino acid 150 mM): 0.7 mM
Produced peptide (mM) [2, 11]: tr

L-Arg-L-Phe
Formed peptide ([3]; L-amino acid 150 mM): 1.9 mM
Produced peptide (mM) [2, 11]: tr

L-Arg-L-Ser
Formed peptide ([3]; L-amino acid 150 mM): 3.6 mM
Produced peptide [2, 11]: 2.2 mM

L-Asn-L-Gln
Formed peptide (mM) ([3]; 150 mM L-glutamine): +

L-Asn-L-Glu
Formed peptide ([3]; L-amino acid 150 mM): 10.2 mM

L-CySH-L-Gln
Formed peptide (mM) ([3]; 150 mM L-glutamine): +

L-Gln-L-Gln
Formed peptide ([3]; 150 mM L-glutamine): 0.3 mM
Produced peptide ([2]; Table 15-2, L-Gln 150 mM): 0.1 mM

L-His-L-Gln
Formed peptide (mM) ([3]; 150 mM L-glutamine): +

L-His-L-Met
Formed peptide ([3]; L-amino acid 150 mM): 6.5 mM

L-Ile-L-Gln
Formed peptide ([3]; 150 mM L-glutamine): 8.4 mM
Produced peptide ([2]; Table 15-2, L-Gln 150 mM): 6.4 mM

L-Ile-L-Phe
Formed peptide ([3]; L-amino acid 150 mM): 5.2 mM
Produced peptide [2, 11]: 1.5 mM

L-Ile-L-Ser
Formed peptide ([3]; L-amino acid 150 mM): 17.2 mM
Produced peptide [2, 11]: 17.3 mM

L-Leu-L-Gln
Formed peptide (mM) ([3]; 150 mM L-glutamine): +

L-Leu-L-Met
Formed peptide ([3]; L-amino acid 150 mM): 12.2 mM

L-Lys-L-Gln
Formed peptide (mM) ([3]; 150 mM L-glutamine): +

L-Lys-L-Met
Formed peptide ([3]; L-amino acid 150 mM): 6.8 mM

L-Met-D-Ser
Formed peptide [1, 7]: 1.9 mM

L-Met-L-Gln
Formed peptide ([3]; 150 mM L-glutamine): 12.0 mM
Produced peptide ([2]; Table 15-2, L-Gln 150 mM): 32.6 mM

L-Met-L-Met
Formed peptide ([3]; L-amino acid 150 mM): 25.0 mM
Produced peptide [2, 11]: 28.4 mM

L-Met-L-Ser
Formed peptide ([3]; L-amino acid 150 mM): 12.8 mM
Produced peptide [2, 11]: 25.3 mM

L-Phe-L-Ser
Formed peptide ([1]; L-amino acid amide hydrochloride 100 mM as carboxy component, L-amino acid 150 mM, pH 9.0, 25° C., 3 hours): 0.6 mM

L-Pro-L-Gln
Formed peptide ([3]; 150 mM L-glutamine): 2.2 mM
Produced peptide ([2]; Table 15-2, L-Gln 150 mM): 1.8 mM

L-Ser-D-Ser
Formed peptide [1, 7]: 16.2 mM

L-Thr-D-Ser
Formed peptide [1, 7]: 6.9 mM

L-Thr-Gly-Gly
Produced peptide [1, 9]: 83.0 mM
Produced peptide [2, 10]: 8.4 mM

L-Thr-L-Ser
Formed peptide ([3]; L-amino acid 150 mM): 58.2 mM

L-Trp-L-Gln
Formed peptide (mM) ([3]; 150 mM L-glutamine): +

L-Trp-L-Met
Formed peptide ([3]; L-amino acid 150 mM): 4.1 mM

L-Tyr-Gly-Gly-L-Phe-L-Met
Produced peptide [1, 12]: 2.7 mM

L-Val-D-Ser
Formed peptide [1, 7]: 1.4 mM

Thr-β-Ala
Formed peptide [1, 6]: 3.2 mM

Thr-β-Phe
Formed peptide [1, 6]: 1.4 mM

[dA]-Gly-Phe
Produced peptide (mM) ([1]; oligopeptide production, amount of enzyme 0.1 unit, pH 9.0, 25° C., 3 hours): Tr

α-L-Glu-L-Gln
Formed peptide (mM) ([3]; 150 mM L-glutamine): +

β-Ala-L-Gln
Formed peptide [1, 6]: 0.6 mM

β-Ala-L-Ser
Formed peptide [1, 6]: 3.2 mM

β-Ala-L-α-Ala
Formed peptide (mM) [1, 6]: tr

β-Ala-β-Ala
Formed peptide [1, 6]: 0.2 mM

β-L-Asp-L-Gln
Formed peptide (mM) ([3]; 150 mM L-glutamine): tr

γ-L-Glu-L-Gln
Formed peptide (mM) ([3]; 150 mM L-glutamine): +

From US8753841B2, “Enzyme that catalyzes a peptide-forming reaction from a carboxy component and an amine component, microbe producing the same, and a method of producing a dipeptide using the enzyme or microbe” (Ajinomoto Co., Inc., priority 2002, dated 2014)
